Laboratory results taken from patent publication USRE40086E1, “Method for treating bacterial infection with novel 7-substituted-9-substituted amino 6-demethyl-6-deoxytetracyclines” (Wyeth Holdings Corporation, priority 1991, dated 2008).

Assays:
Format in all cases: cell-based
[1] = tested on: E. coli J3272 TetD; assay: MIC, agar dilution (Table IA); conditions: unit assumed
[2] = tested on: E. coli UBMS 90-5; assay: MIC, agar dilution (Table IA); conditions: unit assumed
[3] = tested on: E. coli MC4100 TetB; assay: MIC, agar dilution (Table IA); conditions: unit assumed
[4] = tested on: S. aureus UBMS 90-2 (tetM); assay: MIC, agar dilution; conditions: S. aureus UBMS 90-2 TetM; Table IA; unit assumed
[5] = tested on: E. coli MC4100 Tet sens.; assay: MIC, agar dilution (Table IA); conditions: unit assumed
[6] = tested on: S. aureus Smith (Sensitive); assay: MIC, agar dilution; conditions: S. aureus SMITH (MP); Table IA; unit assumed
[7] = tested on: S. aureus UBMS 90-3 (Sensitive); assay: MIC, agar dilution; conditions: S. aureus UBMS 90-3; Table IA; unit assumed
[8] = tested on: S. aureus UBMS 88-7 (tetK); assay: MIC, agar dilution; conditions: S. aureus UBMS 88-7 TetK; Table IA; unit assumed
[9] = tested on: E. coli UBMS 89-2 (Sensitive); assay: MIC, agar dilution; conditions: E. coli UBMS 89-2 Tet Sens.; Table IA; unit assumed
[10] = tested on: E. coli PRP1 TetA; assay: MIC, agar dilution (Table IA); conditions: unit assumed
[11] = tested on: S. mariescens FDOR 8733; assay: MIC, agar dilution (Table IA); conditions: unit assumed
[12] = tested on: S. aureus NEMC 8769/89-4; assay: MIC, agar dilution (Table IA); conditions: unit assumed
[13] = tested on: E. coli #311 (MP); assay: MIC, agar dilution (Table IA); conditions: unit assumed
[14] = tested on: E. coli UBMS 89-1 (tetM); assay: MIC, agar dilution; conditions: E. coli UBMS 89-1 TetM; Table IA; unit assumed
[15] = tested on: S. aureus IVES 2943 (meth. resistant); assay: MIC, agar dilution; conditions: S. aureus IVES 2943; Table IA; unit assumed
[16] = tested on: S. haemolyticus AVAH 88-3; assay: MIC, agar dilution; conditions: S. hemolyticus AVHAH 88-3; Table IA; unit assumed
[17] = tested on: S. aureus ROSE (MP); assay: MIC, agar dilution (Table IA); conditions: unit assumed
[18] = tested on: E. faecalis ATCC 29212; assay: MIC, agar dilution; conditions: E. faecalis ATCC 29212; Table IA; unit assumed
[19] = tested on: S. aureus UBMS 88-4 (Sensitive); assay: MIC, agar dilution; conditions: S. aureus UBMS 88-4; Table IA; unit assumed
[20] = tested on: E. faecalis 12201; assay: MIC, agar dilution; conditions: Enterococcus 12201; Table IA; unit assumed
[21] = tested on: S. aureus ATCC 29213 (Sensitive); assay: MIC, agar dilution; conditions: S. aureus ATCC 29213; Table IA; unit assumed
[22] = tested on: E. coli UBMS 88-1 (tetB); assay: MIC, agar dilution; conditions: E. coli UBMS 88-1 TetB; Table IA; unit assumed
[23] = tested on: E. coli J3272 TetC; assay: MIC, agar dilution (Table IA); conditions: unit assumed
[24] = tested on: E. coli BAJ9003; assay: MIC, agar dilution (Table IA); conditions: unit assumed
[25] = tested on: X. maltophilia NEMC 87210; assay: MIC, agar dilution (Table IA); conditions: unit assumed
[26] = tested on: Ps. acruginosa ATCC 27853; assay: MIC, agar dilution (Table IA); conditions: unit assumed
[27] = tested on: E. coli UBMS 90-4 (tetM); assay: MIC, agar dilution; conditions: E. coli UBMS 90-4 TetM; Table IA; unit assumed
[28] = tested on: E. coli ATCC 25922; assay: MIC, agar dilution; conditions: E. coli ATCC 25922; Table IA; unit assumed
[29] = tested on: S. aureus UBMS 88-5 (tetM); assay: MIC, agar dilution; conditions: S. aureus UBMS 88-5 TetM; Table IA; unit assumed
[30] = tested on: E. coli J2175; assay: MIC, agar dilution (Table IA); conditions: unit assumed
[31] = tested on: S. aureus IVES 1983 (meth. resistant); assay: MIC, agar dilution; conditions: S. aureus IVES 1983; Table IA; unit assumed
[32] = tested on: S. aureus UBMS 90-1 (tetM); assay: MIC, agar dilution; conditions: S. aureus UBMS 90-1 TetM; Table IA; unit assumed

CN(C)CC(=O)Nc1cc(N(C)C)c2c(c1O)C(=O)C1=C(O)[C@]3(O)C(=O)C(C(=O)NCN4CCOCC4)=C(O)[C@@H](N(C)C)C3CC1C2 (stereo partly shown) [GGG]
Antibacterial activity (MIC) [1]: 0.12 µg/mL | Antibacterial activity (MIC) [2]: 0.25 µg/mL | Antibacterial activity (MIC) [3]: 0.25 µg/mL | Antibacterial activity (MIC) [4]: 0.12 µg/mL | Antibacterial activity (MIC) [5]: 0.06 µg/mL | Antibacterial activity (MIC) [6]: 0.12 µg/mL | Antibacterial activity (MIC) [7]: 0.12 µg/mL | Antibacterial activity (MIC) [8]: 1 µg/mL | Antibacterial activity (MIC) [9]: 0.25 µg/mL | Antibacterial activity (MIC) [10]: 1 µg/mL | Antibacterial activity (MIC) [11]: 4 µg/mL | Antibacterial activity (MIC) [12]: 0.25 µg/mL | Antibacterial activity (MIC) [13]: 0.25 µg/mL | Antibacterial activity (MIC) [14]: 0.12 µg/mL | Antibacterial activity (MIC) [15]: 2 µg/mL | Antibacterial activity (MIC) [16]: 0.5 µg/mL | Antibacterial activity (MIC) [17]: 2 µg/mL | Antibacterial activity (MIC) [18]: 0.06 µg/mL | Antibacterial activity (MIC) [19]: 0.12 µg/mL | Antibacterial activity (MIC) [20]: 0.12 µg/mL | Antibacterial activity (MIC) [21]: 0.25 µg/mL | Antibacterial activity (MIC) [22]: 0.25 µg/mL | Antibacterial activity (MIC) [23]: 1 µg/mL | Antibacterial activity (MIC) [24]: 0.03 µg/mL | Antibacterial activity (MIC) [25]: 0.5 µg/mL | Antibacterial activity (MIC) [26]: 8 µg/mL | Antibacterial activity (MIC) [27]: 0.25 µg/mL | Antibacterial activity (MIC) [28]: 0.12 µg/mL | Antibacterial activity (MIC) [29]: 0.12 µg/mL | Antibacterial activity (MIC) [30]: 0.25 µg/mL | Antibacterial activity (MIC) [31]: 2 µg/mL | Antibacterial activity (MIC) [32]: 0.25 µg/mL

CN(C)CC(=O)Nc1cc(N(C)C)c2c(c1O)C(=O)C1=C(O)[C@]3(O)C(=O)C(C(=O)NCN4CCCCC4)=C(O)[C@@H](N(C)C)C3CC1C2 (stereo partly drawn) [HHH, [4S-(4alpha,12aalpha)]-4,7-Bis(dimethylamino)-9-([(dimethylamino)acetyl]amino]-1,4,4a,5,5a,6,11,12a-octahydro-3,10,12,12a-tetrahydroxy-1,11-dioxo-N-(1-piperadinylmethyl)-2-naphthacenecarboxamide]
Antibacterial activity (MIC) [1]: 0.12 µg/mL | Antibacterial activity (MIC) [2]: 0.25 µg/mL | Antibacterial activity (MIC) [3]: 0.25 µg/mL | Antibacterial activity (MIC) [4]: 0.12 µg/mL | Antibacterial activity (MIC) [5]: 0.12 µg/mL | Antibacterial activity (MIC) [6]: 0.12 µg/mL | Antibacterial activity (MIC) [7]: 0.12 µg/mL | Antibacterial activity (MIC) [8]: 0.5 µg/mL | Antibacterial activity (MIC) [9]: 0.25 µg/mL | Antibacterial activity (MIC) [10]: 2 µg/mL | Antibacterial activity (MIC) [11]: 4 µg/mL | Antibacterial activity (MIC) [12]: 0.25 µg/mL | Antibacterial activity (MIC) [13]: 0.25 µg/mL | Antibacterial activity (MIC) [14]: 0.25 µg/mL | Antibacterial activity (MIC) [15]: 2 µg/mL | Antibacterial activity (MIC) [16]: 0.5 µg/mL | Antibacterial activity (MIC) [17]: 2 µg/mL | Antibacterial activity (MIC) [18]: 0.06 µg/mL | Antibacterial activity (MIC) [19]: 0.25 µg/mL | Antibacterial activity (MIC) [20]: 0.12 µg/mL | Antibacterial activity (MIC) [21]: 0.25 µg/mL | Antibacterial activity (MIC) [22]: 0.25 µg/mL | Antibacterial activity (MIC) [23]: 0.5 µg/mL | Antibacterial activity (MIC) [24]: 0.03 µg/mL | Antibacterial activity (MIC) [25]: 0.5 µg/mL | Antibacterial activity (MIC) [26]: 8 µg/mL | Antibacterial activity (MIC) [27]: 0.25 µg/mL | Antibacterial activity (MIC) [28]: 0.25 µg/mL | Antibacterial activity (MIC) [29]: 0.25 µg/mL | Antibacterial activity (MIC) [30]: 0.25 µg/mL | Antibacterial activity (MIC) [31]: 2 µg/mL | Antibacterial activity (MIC) [32]: 0.25 µg/mL
